Data taken from paper PMC8969271, “Release of moth pheromone compounds from Nicotiana benthamiana upon transient expression of heterologous biosynthetic genes” (BMC Biology, 2022).

Tests used:
Assay type in all cases: cell-based
CsupKPSE = biological target: T1, CsupKPSE (Chilo suppressalis, UniProt A0A5Q0V425); assay: heterologous expression in yeast and N. benthamiana, GC/MS of fatty acid methyl esters; details: endogenous palmitic acid (acyl form in cells, presumably acyl-CoA); product (Z)-9-hexadecenoic acid
T1 construct: full-length ORF 1059 nt, 353 aa; synthesized gene; expressed in S. cerevisiae ole1/elo1 and N. benthamiana leaves
T1 sequence (A0A5Q0V425 20-371): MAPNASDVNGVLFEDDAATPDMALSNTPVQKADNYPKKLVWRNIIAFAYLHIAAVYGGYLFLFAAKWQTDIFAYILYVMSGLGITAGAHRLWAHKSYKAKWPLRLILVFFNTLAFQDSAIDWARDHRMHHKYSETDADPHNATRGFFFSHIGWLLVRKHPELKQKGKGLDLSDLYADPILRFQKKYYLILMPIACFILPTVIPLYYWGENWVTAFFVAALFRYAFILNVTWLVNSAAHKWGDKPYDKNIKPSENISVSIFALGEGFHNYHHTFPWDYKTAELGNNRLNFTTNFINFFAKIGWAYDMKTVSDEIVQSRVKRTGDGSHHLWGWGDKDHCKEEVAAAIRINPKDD

CsupFAR2 [1] = biological target: T2, CsupFAR2 (Chilo suppressalis, UniProt A0A3S2LS93); assay: co-expression with CsupKPSE in N. benthamiana leaves, GC/MS of fatty alcohols; details: acyl form in cells, presumably acyl-CoA; product (Z)-9-hexadecenol
T2 construct: full-length ORF 1404 nt, 468 aa; synthesized gene; expressed in S. cerevisiae INVSc (pYES52) and N. benthamiana leaves
T2 sequence (A0A3S2LS93 1-468): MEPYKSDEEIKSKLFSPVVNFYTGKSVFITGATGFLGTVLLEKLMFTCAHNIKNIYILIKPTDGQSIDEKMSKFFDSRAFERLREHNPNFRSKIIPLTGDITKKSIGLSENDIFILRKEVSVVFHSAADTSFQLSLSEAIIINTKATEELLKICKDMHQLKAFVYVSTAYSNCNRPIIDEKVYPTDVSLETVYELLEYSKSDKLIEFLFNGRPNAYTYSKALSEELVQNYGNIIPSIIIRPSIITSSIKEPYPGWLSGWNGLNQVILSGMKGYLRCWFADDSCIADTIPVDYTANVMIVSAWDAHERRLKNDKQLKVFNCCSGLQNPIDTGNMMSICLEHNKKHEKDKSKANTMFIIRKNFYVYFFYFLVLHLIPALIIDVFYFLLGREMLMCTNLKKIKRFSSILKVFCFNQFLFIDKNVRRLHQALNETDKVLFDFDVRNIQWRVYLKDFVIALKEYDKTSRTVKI

ATF1 = biological target: T3, ATF1 (Saccharomyces cerevisiae, UniProt P40353); assay: co-expression with desaturases and CsupFAR2 in N. benthamiana leaves, SPME and GC/MS; details: endogenous acetyl donor; product (Z)-11-hexadecenyl acetate
T3 construct: expressed transiently in N. benthamiana leaves with AtrΔ11, CpuFatB1, CsupYPAQ and CsupFAR2
T3 sequence (P40353 1-525): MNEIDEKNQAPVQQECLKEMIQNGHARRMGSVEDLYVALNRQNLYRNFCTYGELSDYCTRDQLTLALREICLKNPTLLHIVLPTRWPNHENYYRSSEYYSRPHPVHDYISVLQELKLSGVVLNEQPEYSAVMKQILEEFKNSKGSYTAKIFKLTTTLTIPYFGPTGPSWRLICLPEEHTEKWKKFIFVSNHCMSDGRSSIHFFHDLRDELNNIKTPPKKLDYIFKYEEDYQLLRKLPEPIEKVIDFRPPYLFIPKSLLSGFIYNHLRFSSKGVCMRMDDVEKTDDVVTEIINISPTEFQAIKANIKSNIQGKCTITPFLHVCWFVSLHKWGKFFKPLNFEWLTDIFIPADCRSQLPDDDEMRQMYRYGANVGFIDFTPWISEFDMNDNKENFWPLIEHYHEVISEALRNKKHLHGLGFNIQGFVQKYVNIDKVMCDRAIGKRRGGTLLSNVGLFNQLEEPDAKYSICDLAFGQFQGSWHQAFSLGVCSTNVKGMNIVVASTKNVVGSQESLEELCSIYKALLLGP

CsupFAR2 [2] = biological target: T2, CsupFAR2; assay: heterologous expression in yeast and N. benthamiana, GC/MS of fatty alcohols; details: yeast supplemented with methyl (Z)-11-hexadecenoate or co-expressing CsupYPAQ; acyl form in cells, presumably acyl-CoA; product (Z)-11-hexadecenol

CCCCCCCCCCCCCCCC(=O)O [16:acid, palmitic acid]
heterologous expression in yeast and N. benthamiana, GC/MS of fatty acid methyl (CsupKPSE): CsupKPSE producing Z9-16:acid, the precursor of the minor pheromone component from palmitic acid

CCCCCC/C=C\CCCCCCCC(=O)O [Z9-16:acid, (Z)-9-hexadecenoic acid]
co-expression with CsupKPSE in N. benthamiana leaves, GC/MS of fatty alcohols (CsupFAR2 [1]): a minor amount of (Z)-9-hexadecenol (Z9-16:OH) was produced

CCCC/C=C\CCCCCCCCCCO [Z11-16:OH, (Z)-11-hexadecenol]
co-expression with desaturases and CsupFAR2 in N. benthamiana leaves, SPME and G (ATF1): Upon co-expression of the acetyltransferase gene ATF1, Z11-16:OAc was also released together with Z11-16:OH

CCCC/C=C\CCCCCCCCCC(=O)O [Z11-16:acid, (Z)-11-hexadecenoic acid]
heterologous expression in yeast and N. benthamiana, GC/MS of fatty alcohols (CsupFAR2 [2]): it reduced the C. suppressalis pheromone precursors Z11-16:acid, Z9-16:acid
